“And” between values parts separate entries of the source, which are not always exact repeats. Equal values may be shown once.
What was measured:
human amylin (hIAPP) [1] = molecular target: T1, human amylin (hIAPP) (Homo sapiens, UniProt P10997); experiment: Kinetic analysis of amylin aggregation (ThT, two-step autocatalytic aggregation model); format: biochemical; conditions: mean ± S.D.; for t 0 (time point when the aggregation starts): 10% of highest ThT fluorescence; for t 1/2 (aggregation halftime): 50% of highest ThT fluorescence; for t 1 (aggregation endpoint): 90% of highest ThT fluorescence; for k / k e (elongation constant) / k n (nucleation constant) / ρ (ratio of kn to k): ThT data, autocatalytic aggregation model
T1 construct: purchased Bachem USA
T1 sequence (P10997 34-70 limits assumed): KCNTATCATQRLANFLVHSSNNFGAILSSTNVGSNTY
Protocol: Kinetic analysis was performed according to the model of autocatalytic aggregation. According to Sabaté et al., aggregation is a two-step process, comprising nucleation (described by the k n constant) and fibrillation phases (represented by the k e constant). Two constants (k n and k e) are calculated using the eq : 5 f=ρ{e^[(1+ρ)kt]−1}/{1+ρe^[(1+ρ)kt]} where k = k e a (where a represents the initial concentration of the aggregating peptide), f stands for a fraction of the fibrillar form in the system, and ρ denotes the dimensionless ratio of k n to k. The parameters k and ρ were calculated first, then k n and k e.
Data were normalized as a fraction of the highest fluorescence from the three trials and fitted into the model of autocatalytic aggregation. The same procedure was repeated for the remaining trials. The second calculation aimed to find the time parameters of the aggregation process: t 0 (time point when the aggregation starts), t 1/2 (aggregation halftime), and t 1 (aggregation endpoint). t 0, t 1/2, and t 1 were calculated as 10%, 50%, and 90% of the highest fluorescence measurements from the three trials, respectively. All calculations were performed using GraphPad Prism 9.5.1, Statistica 13.3.721.1, and Microsoft Excel 2304.

Aβ = tested on: Aβ; parameters: method as in Panek et al.; conditions: ref Panek et al.; cited from earlier work
human amylin (hIAPP) [2] = molecular target: T1, human amylin (hIAPP); experiment: Thioflavin T (ThT) fluorescence assay of amylin aggregation; format: biochemical; conditions: for inhibition at 10 µM: read-out: ThT inhibition % (mean ± SEM), compound 10 μM, amylin 15 μM, 36 h incubation, 3 trials
Protocol: (§1) A stock solution of amylin (1 mM) (purchased from Bachem USA), peptide sequence: […] amide (with disulfide bond between Cys2 and Cys7), was prepared in 100% hexafluoroisopropyl alcohol (HFIP) (purchased from Sigma-Aldrich) and stored at −20 °C. , Aliquots of amylin peptide were filtered through a 0.22 μm filter from the stock solution and freeze-dried. For kinetic experiments, 15 μM of amylin was prepared in 50 mM Tris-HCl buffer (pH 7.4), as investigated in previous studies by Chaari et al., , Samples of amylin were prepared in the presence or absence of inhibitors. Each compound was dissolved in DMSO and further diluted with the buffer used to solubilize the amylin. The final mixture contained 15 μM amylin, 10 μM of the test compound, 2% DMSO or 15 μM amylin, and 2% DMSO without the compound (negative control). Also 15 μM amylin, 10 μM of oleuropein aglycone and 2% DMSO was used as a positive control. The prepared solutions were incubated under physiological conditions (pH 7.4 and 37 °C) for amylin aggregation. Samples were incubated for 36 h to test for amylin aggregation, and measurements were conducted at different time points.
Amylin aggregation was monitored by characteristic changes in Thioflavin T (ThT) fluorescence intensity. A ThT stock solution (15 μM) was prepared in deionized water at pH 7.4. The amylin samples were mixed with the ThT solution and allowed to incubate. ThT fluorescence was measured using the PerkinElmer model LS 55 fluorescence spectrophotometer (PerkinElmer, USA), with an excitation wavelength of 440 nm and an emission wavelength of 480 nm. ,− The emission and excitation slits were set to 5 nm, and a 1 cm cuvette was used for all experiments. Nonspecific background fluorescence was subtracted from the samples using appropriate blanks in the absence of proteins. Each experiment was performed in triplicate.

human amylin (hIAPP) [3] = molecular target: T1, human amylin (hIAPP); experiment: Dynamic light scattering (DLS) assay of amylin aggregation; format: biochemical; conditions: compound 10 μM, amylin 15 μM, 36 h incubation, 3 trials; read-out: DLS inhibition % (mean ± SEM)
Protocol: as §1
DLS (Zetasizer, Malvern) was used at a wavelength of 633 nm to measure the average diffusion coefficient distribution of amylin particles and the aggregation percentage. Samples were diluted 10-fold, and 50 μL was placed into a 96-well plate. The total light scattering intensity at a 90° angle was collected using a 10 s averaging acquisition time. Particle translational diffusion coefficients were calculated from autocorrelated light intensity data (usually 30–40 points) and converted to the hydrodynamic radius (R h) using the Stokes–Einstein equation. A distribution plot of intensity versus R h was calculated using the Sedfit 9.3 analysis software, and intensity-weighted mean R h values were obtained from each peak.

human amylin (hIAPP) [4] = molecular target: T1, human amylin (hIAPP); experiment: Thioflavin T (ThT) fluorescence assay of amylin aggregation; format: biochemical; conditions: read-out: IC50 of amylin aggregation inhibition

SMILES | t 0 (time point when the aggregation starts) (human amylin (hIAPP) [1]) [h] | t 1/2 (aggregation halftime) (human amylin (hIAPP) [1]) [h] | t 1 (aggregation endpoint) (human amylin (hIAPP) [1]) [h] | k (human amylin (hIAPP) [1]) [h^–1] | k e (elongation constant) (human amylin (hIAPP) [1]) | k n (nucleation constant) (human amylin (hIAPP) [1]) [h^–1] | ρ (ratio of kn to k) (human amylin (hIAPP) [1]) | inhibition of Aβ aggregation in the ThT assay (Aβ) | ThT inhibition % (mean ± SEM) (human amylin (hIAPP) [2]; compound 10 μM, amylin 15 μM, 36 h incubation, 3 trials) [%] | inhibition at 10 µM (human amylin (hIAPP) [2]) [%] | inhibition at 10 µM (human amylin (hIAPP) [3]) [%] | IC50 (human amylin (hIAPP) [4]) [µM]
CC(C)(C)c1cccc(CNCC(O)CCN2CCN(C(c3ccccc3)c3ccccc3)CC2)c1 (centres unmarked) [Compound 13] | 12.49 ± 0.19 | 20.41 ± 0.20 | 28.41 ± 0.23 | 0.2729 ± 0.0025 | 18195 ± 165 M^–1h^–1 | 0.0011 ± 0.0001 | 0.0038 ± 0.0002 | 81.4% and ~82% | 74.7 ± 0.7 | ~75 | 86.7 ± 4.5 | 3.75
CC(C)(C)c1cccc(CNCC(O)CN2CCN(C(c3ccccc3)c3ccccc3)CC2)c1 (centres unmarked) [Compound 6] | 8.36 ± 0.56 | 16.61 ± 0.27 | 25.27 ± 0.39 | 0.2488 ± 0.0157 | 16585 M^–1h^–1 and 16585 ± 1051 M^–1h^–1 | 0.0039 ± 0.0009 | 0.0159±0.0044 | 77.2% | – | > 50 | 30.3 ± 3.1 | 4.11
